Measured values published in US20240285621A1, “PYRAZOLYL-PYRIMIDINE DERIVATIVES AS KINASE INHIBITORS” (NERVIANO MEDICAL SCIENCES S.R.L., priority 2020, published 2024).
Structures can show the parent of a compound that is named as a salt.

target: T1, SYK (Homo sapiens, UniProt P43405); assay: Biochemical kinase inhibition assay on SYK, ADPGlo assay format; details: Table A, pre-activated SYK 0.6 nM, ATP 60 μM, BioDBn*327 125 μM, 60 minutes at room temperature
T1 construct: Recombinant proteins SYK FL was produced at NMS via baculo virus infection in insect cells; His; GST; made in house; host or cells: insect cells (baculovirus)

SMILES | IC50 [µM]
COc1cc(F)cc(Nc2nccc(-c3cc(C(=O)N[C@@H](C)CN4CCC4)n(C)n3)n2)c1 [Example 48, N-[(2S)-1-(azetidin-1-yl)propan-2-yl]-3-{2-[(3-fluoro-5-methoxyphenyl)amino]pyrimidin-4-yl}-1-methyl-1H-pyrazole-5-carboxamide] | 0.023
COc1cc(C#N)cc(Nc2nccc(-c3cc(C(=O)N[C@@H](C)CN(C)C)n(C)n3)n2)c1 [Example 78, 3-{2-[(3-cyano-5-methoxyphenyl)amino]pyrimidin-4-yl}-N-[(2S)-1-(dimethylamino)propan-2-yl]-1-methyl-1H-pyrazole-5-carboxamide] | 0.033
COc1cc(C#N)cc(Nc2nccc(-c3cc(C(=O)N[C@@H](C)CN4CCC4)n(C)n3)n2)c1 [Example 79, N-[(2S)-1-(azetidin-1-yl)propan-2-yl]-3-{2-[(3-cyano-5-methoxyphenyl)amino]pyrimidin-4-yl}-1-methyl-1H-pyrazole-5-carboxamide] | 0.026

target: T1, SYK; assay: Biochemical kinase inhibition assay on SYK, KinaseGlo assay format; details: Table A; KinaseGlo format, pre-activated SYK 2.5 nM, ATP 2.5 μM, substrate BioDBn*327 125 uM, 60 minutes at rt; read-out: IC50 (μM) Kglo

SMILES | IC50 [µM]
COc1cc(F)cc(Nc2nccc(-c3cc(C(=O)N[C@@H](C)CN4CCC4)n(C)n3)n2)c1 [Example 48, N-[(2S)-1-(azetidin-1-yl)propan-2-yl]-3-{2-[(3-fluoro-5-methoxyphenyl)amino]pyrimidin-4-yl}-1-methyl-1H-pyrazole-5-carboxamide] | 0.006
COc1cc(C#N)cc(Nc2nccc(-c3cc(C(=O)N[C@@H](C)CN(C)C)n(C)n3)n2)c1 [Example 78, 3-{2-[(3-cyano-5-methoxyphenyl)amino]pyrimidin-4-yl}-N-[(2S)-1-(dimethylamino)propan-2-yl]-1-methyl-1H-pyrazole-5-carboxamide] | 0.015
COc1cc(C#N)cc(Nc2nccc(-c3cc(C(=O)N[C@@H](C)CN4CCC4)n(C)n3)n2)c1 [Example 79, N-[(2S)-1-(azetidin-1-yl)propan-2-yl]-3-{2-[(3-cyano-5-methoxyphenyl)amino]pyrimidin-4-yl}-1-methyl-1H-pyrazole-5-carboxamide] | 0.007
COc1cc(Nc2nccc(-c3cc(C(=O)N[C@@H](C)C(=O)N(C)C)n(C)n3)n2)cc(OC)c1 [Example 71, 3-{2-[(3,5-dimethoxyphenyl)amino]pyrimidin-4-yl}-N-[(2S)-1-(dimethylamino)-1-oxopropan-2-yl]-1-methyl-1H-pyrazole-5-carboxamide] | 0.452
Cn1nc(-c2ccnc(Nc3cc(Cl)cc(Cl)c3)n2)cc1C(=O)N[C@H]1CCCC[C@@H]1N [Example 116, N-[(1S,2S)-2-aminocyclohexyl]-3-{2-[(3,5-dichlorophenyl)amino]pyrimidin-4-yl}-1-methyl-1H-pyrazole-5-carboxamide] | 0.011
Cn1nc(-c2ccnc(Nc3ccc4c(c3)c(Cl)cn4C)n2)cc1C(=O)N[C@H]1CCCC[C@H]1N [Example 38, N-[(1S,2R)-2-aminocyclohexyl]-3-{2-[(3-chloro-1-methyl-1H-indol-5-yl)amino]pyrimidin-4-yl}-1-methyl-1H-pyrazole-5-carboxamide hydrochloride] | 0.005
CC(C)[C@@H](CN1CCC1)NC(=O)c1cc(-c2ccnc(Nc3cc(Cl)cc(Cl)c3)n2)nn1C [Example 61, N-[(2S)-1-(azetidin-1-yl)-3-methylbutan-2-yl]-3-{2-[(3,5-dichlorophenyl)amino]pyrimidin-4-yl}-1-methyl-1H-pyrazole-5-carboxamide] | 0.004
CC[C@@H](NC(=O)c1cc(-c2ccnc(Nc3cc(C)cc(C)c3)n2)nn1C)C(F)(F)F [Example 56, 3-{2-[(3,5-dimethylphenyl)amino]pyrimidin-4-yl}-1-methyl-N-[(2R)-1,1,1-trifluorobutan-2-yl]-1H-pyrazole-5-carboxamide] | 0.081
Cc1cc(C)cc(Nc2nccc(-c3cc(C(=O)NCCN4CCOCC4)n(C)n3)n2)c1 [Example 9, 3-{2-[(3,5-dimethylphenyl)amino]pyrimidin-4-yl}-1-methyl-N-[2-(morpholin-4-yl)ethyl]-1H-pyrazole-5-carboxamide] | 0.398
Cc1cc(C)cc(Nc2nccc(-c3cc(C(=O)NCC4CC4)n(C)n3)n2)c1 [Example 47, N-(cyclopropylmethyl)-3-{2-[(3,5-dimethylphenyl)amino]pyrimidin-4-yl}-1-methyl-1H-pyrazole-5-carboxamide] | 0.04
Cc1cc(C)cc(Nc2nccc(-c3cc(C(=O)N4CCC(N)C4)n(C)n3)n2)c1 (centres unmarked) [Example 88, (3-aminopyrrolidin-1-yl)(3-{2-[(3,5-dimethylphenyl)amino]pyrimidin-4-yl}-1-methyl-1H-pyrazol-5-yl)methanone] | 0.051
Cc1cc(C)cc(Nc2nccc(-c3cc(C(=O)N[C@@H]4CCCC[C@@H]4O)n(C)n3)n2)c1 [Example 91, 3-{2-[(3,5-dimethylphenyl)amino]pyrimidin-4-yl}-N-[(1R,2S)-2-hydroxycyclohexyl]-1-methyl-1H-pyrazole-5-carboxamide] | 0.035
Cc1cc(C)cc(Nc2nccc(-c3cc(C(=O)N[C@@H]4CCCC[C@H]4O)n(C)n3)n2)c1 [Example 32, 5-[2-(3,5-Dimethyl-phenylamino)-pyrimidin-4-yl]-2-methyl-2H-pyrazole-3-carboxylic acid ((1R,2R)-2-hydroxy-cyclohexyl)-amide] | 0.074
COCCNC(=O)c1cc(-c2ccnc(Nc3cc(C)cc(C)c3)n2)nn1C [Example 16, 3-{2-[(3,5-dimethylphenyl)amino]pyrimidin-4-yl}-N-(2-methoxyethyl)-1-methyl-1H-pyrazole-5-carboxamide] | 0.272
Cc1cc(C)cc(Nc2nccc(-c3cc(C(=O)N(C)C)n(C)n3)n2)c1 [Example 15, 3-{2-[(3,5-dimethylphenyl)amino]pyrimidin-4-yl}-N,N,1-trimethyl-1H-pyrazole-5-carboxamide] | 0.358
Cc1cc(C)cc(Nc2nccc(-c3cc(C(=O)NC4CN5CCC4CC5)n(C)n3)n2)c1 (centres unmarked) [Example 31, N-(1-azabicyclo[2.2.2]oct-3-yl)-3-{2-[(3,5-dimethylphenyl)amino]pyrimidin-4-yl}-1-methyl-1H-pyrazole-5-carboxamide] | 0.139
Cc1cccc(Nc2nccc(-c3cc(C(=O)N[C@H](CN4CCCC4)C(C)C)n(C)n3)n2)c1 [Example 112, 1-methyl-3-{2-[(3-methylphenyl)amino]pyrimidin-4-yl}-N-[(2S)-3-methyl-1-(pyrrolidin-1-yl)butan-2-yl]-1H-pyrazole-5-carboxamide] | 0.023
Cc1cc(C)cc(Nc2nccc(-c3cc(C(=O)N[C@H]4CCCC[C@@H]4O)n(C)n3)n2)c1 [Example 118, 3-{2-[(3,5-dimethylphenyl)amino]pyrimidin-4-yl}-N-[(1S,2S)-2-hydroxycyclohexyl]-1-methyl-1H-pyrazole-5-carboxamide] | 0.045
Cc1cc(C)cc(Nc2nccc(-c3cc(C(=O)NCC(C)C)n(C)n3)n2)c1 [Example 46, 3-{2-[(3,5-dimethylphenyl)amino]pyrimidin-4-yl}-1-methyl-N-(2-methylpropyl)-1H-pyrazole-5-carboxamide] | 0.049
Cc1cc(C)cc(Nc2nccc(-c3cc(C(=O)N[C@H]4CCCC[C@H]4N)[nH]n3)n2)c1 [Example 104, N-[(1S,2R)-2-aminocyclohexyl]-3-{2-[(3,5-dimethylphenyl)amino]pyrimidin-4-yl}-1H-pyrazole-5-carboxamide hydrochloride] | < 0.004
Cc1cc(C)cc(Nc2nccc(-c3cc(C(=O)N[C@H]4CCCC[C@H]4O)n(C)n3)n2)c1 [Example 115, 3-{2-[(3,5-dimethylphenyl)amino]pyrimidin-4-yl}-N-[(1S,2R)-2-hydroxycyclohexyl]-1-methyl-1H-pyrazole-5-carboxamide] | 0.023
Cc1cc(C)cc(Nc2nccc(-c3cc(C(=O)N(C)CCN(C)C)n(C)n3)n2)c1 [Example 5, N-[2-(dimethylamino)ethyl]-3-{2-[(3,5-dimethylphenyl)amino]pyrimidin-4-yl}-N,1-dimethyl-1H-pyrazole-5-carboxamide] | 0.084
Cc1cc(C)cc(Nc2nccc(-c3cc(C(N)=O)n(C)n3)n2)c1 [Example 13, 3-{2-[(3,5-dimethylphenyl)amino]pyrimidin-4-yl}-1-methyl-1H-pyrazole-5-carboxamide] | 0.226
Cn1nc(-c2ccnc(Nc3cc(Cl)cc(Cl)c3)n2)cc1C(=O)N[C@H]1CCCC[C@H]1N [Example 99, N-[(1S,2R)-2-aminocyclohexyl]-3-{2-[(3,5-dichlorophenyl)amino]pyrimidin-4-yl}-1-methyl-1H-pyrazole-5-carboxamide hydrochloride] | 0.011
CC(C)[C@@H](CO)NC(=O)c1cc(-c2ccnc(Nc3ccc(N4CCN(C)CC4)c(Cl)c3)n2)nn1C [Example 111, 3-(2-{[3-chloro-4-(4-methylpiperazin-1-yl)phenyl]amino}pyrimidin-4-yl)-N-[(2S)-1-hydroxy-3-methylbutan-2-yl]-1-methyl-1H-pyrazole-5-carboxamide] | 0.144
Cc1cc(C)cc(Nc2nccc(-c3cc(C(=O)N4C[C@H]5C[C@H]4CN5)n(C)n3)n2)c1 [Example 96, (1S,4R)-2,5-diazabicyclo[2.2.1]hept-2-yl(3-{2-[(3,5-dimethylphenyl)amino]pyrimidin-4-yl}-1-methyl-1H-pyrazol-5-yl)methanone hydrochloride] | 0.07
Cc1cc(C)cc(Nc2nccc(-c3cc(C(=O)NCCNC(C)C)n(C)n3)n2)c1 [Example 12, 3-{2-[(3,5-dimethylphenyl)amino]pyrimidin-4-yl}-1-methyl-N-[2-(propan-2-ylamino)ethyl]-1H-pyrazole-5-carboxamide hydrochloride] | 0.398
Cc1cc(C)cc(Nc2nccc(-c3cc(C(=O)NCC(C)(C)C)n(C)n3)n2)c1 [Example 45, 3-{2-[(3,5-dimethylphenyl)amino]pyrimidin-4-yl}-N-(2,2-dimethylpropyl)-1-methyl-1H-pyrazole-5-carboxamide] | 0.065
Cc1cc(C)cc(Nc2nccc(-c3cc(C(=O)N4CC[C@H](O)C4)n(C)n3)n2)c1 [Example 90, (3-{2-[(3,5-dimethylphenyl)amino]pyrimidin-4-yl}-1-methyl-1H-pyrazol-5-yl)[(3S)-3-hydroxypyrrolidin-1-yl]methanone] | 0.156
Cc1cccc(Nc2nccc(-c3cc(C(=O)N[C@H](CO)C(C)C)n(C)n3)n2)c1 [Example 41, N-[(2S)-1-hydroxy-3-methylbutan-2-yl]-1-methyl-3-{2-[(3-methylphenyl)amino]pyrimidin-4-yl}-1H-pyrazole-5-carboxamide] | 0.077

same assay, conditions: Table B; reference compounds of WO2012/139930, KinaseGlo format on Syk; read-out: IC50 (μM) Kglo

SMILES | IC50 [µM]
CCc1cccc(CC)c1NC(=O)c1cc(-c2ccnc(Nc3ccccc3OC)n2)[nH]n1 [compound 14, reference compound] | > 10
CNC(=O)c1cc(-c2ccnc(N(C)C)n2)n(C(C)(C)C)n1 [compound 39, reference compound] | > 10
